Source: PubChem BioAssay (NCI)
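Exposure lasted 48 hours, with cells grown in 96-well plates and compounds tested at five concentrations. The concentration for full growth arrest is given as TGI.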

How the values were obtained:
Assay in all cases: NCI anticancer screen, dose series, 48 h
SK-MEL-2 melanoma = system: SK-MEL-2 melanoma
OVCAR-8 ovarian = system: OVCAR-8 ovarian
UACC-62 melanoma = system: UACC-62 melanoma
MDA-N = system: MDA-N
TK-10 renal = system: TK-10 renal
MOLT-4 leukemia = system: MOLT-4 leukemia
SN12C renal = system: SN12C renal
NCI-H226 lung = system: NCI-H226 lung
HOP-62 NSCLC = system: HOP-62 NSCLC
OVCAR-3 ovarian = system: OVCAR-3 ovarian
MDA-MB-435 = system: MDA-MB-435
COLO 205 colon = system: COLO 205 colon
ACHN renal = system: ACHN renal
MDA-MB-231 breast = system: MDA-MB-231 breast
SR leukemia = system: SR leukemia
RPMI-8226 leukemia = system: RPMI-8226 leukemia
NCI/ADR-RES ovarian = system: NCI/ADR-RES ovarian
A549 NSCLC = system: A549 NSCLC
UACC-257 melanoma = system: UACC-257 melanoma
SF-539 CNS = system: SF-539 CNS
DU-145 prostate = system: DU-145 prostate
SF-268 CNS = system: SF-268 CNS
CCRF-CEM leukemia = system: CCRF-CEM leukemia
SW-620 colon = system: SW-620 colon
RXF 393 renal = system: RXF 393 renal
HCC-2998 colon = system: HCC-2998 colon
SF-295 CNS = system: SF-295 CNS
MALME-3M melanoma = system: MALME-3M melanoma
786-0 renal = system: 786-0 renal
SK-MEL-28 melanoma = system: SK-MEL-28 melanoma
HT29 colon = system: HT29 colon
PC-3 prostate = system: PC-3 prostate
IGROV1 ovarian = system: IGROV1 ovarian
NCI-H23 lung = system: NCI-H23 lung
T-47D breast = system: T-47D breast
K-562 leukemia = system: K-562 leukemia
EKVX NSCLC = system: EKVX NSCLC
SNB-75 CNS = system: SNB-75 CNS
HS 578T breast = system: HS 578T breast
UO-31 renal = system: UO-31 renal
CAKI-1 renal = system: CAKI-1 renal
M14 melanoma = system: M14 melanoma
OVCAR-5 ovarian = system: OVCAR-5 ovarian
HCT-15 colon = system: HCT-15 colon
A498 renal = system: A498 renal
SNB-19 CNS = system: SNB-19 CNS
HL-60(TB) leukemia = system: HL-60(TB) leukemia
SK-MEL-5 melanoma = system: SK-MEL-5 melanoma
OVCAR-4 ovarian = system: OVCAR-4 ovarian
HCT-116 colon = system: HCT-116 colon
LOX IMVI melanoma = system: LOX IMVI melanoma
NCI-H522 lung = system: NCI-H522 lung
MCF7 breast = system: MCF7 breast
NCI-H460 lung = system: NCI-H460 lung
SK-OV-3 ovarian = system: SK-OV-3 ovarian
HOP-92 NSCLC = system: HOP-92 NSCLC
KM12 colon = system: KM12 colon

Question: How did the TGI (SK-MEL-2 melanoma) turn out when `COC(=O)c1c(C(=O)OC)c2ccccn2c1-c1cc(C)cc2c1C(=O)C=CC2=O` was run?
Answer: The TGI was 17.2 µM.

Question: What about the TGI (OVCAR-8 ovarian) of the same compound?
Answer: Its TGI is 14.4 µM.

Question: And the TGI (UACC-62 melanoma)?
Answer: Its TGI is 17.7 µM.

Question: And the TGI (MDA-N)?
Answer: The TGI was 15.3 µM.

Question: What about the TGI (TK-10 renal) of the same compound?
Answer: Its TGI is 18.4 µM.

Question: And the TGI (MOLT-4 leukemia)?
Answer: Its TGI is 3.76 µM.

Question: What about the TGI (SN12C renal) of the same compound?
Answer: Its TGI is 17.6 µM.

Question: What about the TGI (NCI-H226 lung) of the same compound?
Answer: The TGI was 19.7 µM.

Question: And the TGI (HOP-62 NSCLC)?
Answer: The TGI was 21.7 µM.

Question: And the TGI (OVCAR-3 ovarian)?
Answer: The TGI was 15.6 µM.

Question: And the TGI (MDA-MB-435)?
Answer: The TGI was 16 µM.

Question: What about the TGI (COLO 205 colon) of the same compound?
Answer: Its TGI is 13.4 µM.

Question: What about the TGI (ACHN renal) of the same compound?
Answer: Its TGI is 17.2 µM.

Question: What about the TGI (MDA-MB-231 breast) of the same compound?
Answer: Its TGI is 15.9 µM.

Question: What about the TGI (SR leukemia) of the same compound?
Answer: The TGI was 8.53 µM.

Question: And the TGI (RPMI-8226 leukemia)?
Answer: Its TGI is 8.9 µM.

Question: And the TGI (NCI/ADR-RES ovarian)?
Answer: Its TGI is 27.8 µM.

Question: And the TGI (A549 NSCLC)?
Answer: Its TGI is 25.7 µM.

Question: And the TGI (UACC-257 melanoma)?
Answer: The TGI was 13.6 µM.

Question: What about the TGI (SF-539 CNS) of the same compound?
Answer: Its TGI is 15.7 µM.

Question: What about the TGI (DU-145 prostate) of the same compound?
Answer: The TGI was 20.1 µM.

Question: And the TGI (SF-268 CNS)?
Answer: Its TGI is 20.8 µM.

Question: What about the TGI (CCRF-CEM leukemia) of the same compound?
Answer: Its TGI is 3.65 µM.

Question: What about the TGI (SW-620 colon) of the same compound?
Answer: The TGI was 8.21 µM.

Question: And the TGI (RXF 393 renal)?
Answer: The TGI was 18.5 µM.

Question: And the TGI (HCC-2998 colon)?
Answer: Its TGI is 20.1 µM.

Question: And the TGI (SF-295 CNS)?
Answer: The TGI was 18 µM.

Question: What about the TGI (MALME-3M melanoma) of the same compound?
Answer: The TGI was 15 µM.

Question: And the TGI (786-0 renal)?
Answer: Its TGI is 11.3 µM.

Question: And the TGI (SK-MEL-28 melanoma)?
Answer: The TGI was 17.9 µM.

Question: What about the TGI (HT29 colon) of the same compound?
Answer: The TGI was 16.6 µM.

Question: And the TGI (PC-3 prostate)?
Answer: Its TGI is 18.5 µM.

Question: And the TGI (IGROV1 ovarian)?
Answer: The TGI was 17.3 µM.

Question: And the TGI (NCI-H23 lung)?
Answer: Its TGI is 14.8 µM.

Question: What about the TGI (T-47D breast) of the same compound?
Answer: The TGI was 7.83 µM.

Question: And the TGI (K-562 leukemia)?
Answer: Its TGI is 7.63 µM.

Question: What about the TGI (EKVX NSCLC) of the same compound?
Answer: Its TGI is 21.7 µM.

Question: What about the TGI (SNB-75 CNS) of the same compound?
Answer: Its TGI is 23.6 µM.

Question: What about the TGI (HS 578T breast) of the same compound?
Answer: Its TGI is 24.2 µM.

Question: What about the TGI (UO-31 renal) of the same compound?
Answer: The TGI was 6.05 µM.

Question: And the TGI (CAKI-1 renal)?
Answer: The TGI was 12.4 µM.

Question: What about the TGI (M14 melanoma) of the same compound?
Answer: The TGI was 14.5 µM.

Question: What about the TGI (OVCAR-5 ovarian) of the same compound?
Answer: Its TGI is 16.9 µM.

Question: And the TGI (HCT-15 colon)?
Answer: Its TGI is 15.6 µM.

Question: What about the TGI (A498 renal) of the same compound?
Answer: The TGI was 17.5 µM.

Question: What about the TGI (SNB-19 CNS) of the same compound?
Answer: The TGI was 18.6 µM.

Question: What about the TGI (HL-60(TB) leukemia) of the same compound?
Answer: The TGI was 5.04 µM.

Question: What about the TGI (SK-MEL-5 melanoma) of the same compound?
Answer: Its TGI is 17 µM.

Question: What about the TGI (OVCAR-4 ovarian) of the same compound?
Answer: The TGI was 18.8 µM.

Question: And the TGI (HCT-116 colon)?
Answer: The TGI was 15.7 µM.

Question: `O=C1C/C(=C\c2ccccc2)C(=O)c2ccccc2N1` was tested. Which TGI (SK-MEL-2 melanoma) did it give?
Answer: Its TGI is 60.6 µM.

Question: And the TGI (OVCAR-8 ovarian)?
Answer: The TGI was 39.1 µM.

Question: And the TGI (UACC-62 melanoma)?
Answer: The TGI was 40.5 µM.

Question: What about the TGI (MDA-N) of the same compound?
Answer: The TGI was 47.8 µM.

Question: What about the TGI (TK-10 renal) of the same compound?
Answer: The TGI was 54.7 µM.

Question: And the TGI (LOX IMVI melanoma)?
Answer: Its TGI is 40.8 µM.

Question: And the TGI (MOLT-4 leukemia)?
Answer: The TGI was > 100 µM.

Question: And the TGI (SN12C renal)?
Answer: The TGI was 34.8 µM.

Question: What about the TGI (NCI-H226 lung) of the same compound?
Answer: The TGI was 80.4 µM.

Question: And the TGI (HOP-62 NSCLC)?
Answer: Its TGI is 56.6 µM.

Question: What about the TGI (OVCAR-3 ovarian) of the same compound?
Answer: Its TGI is 50.5 µM.

Question: And the TGI (MDA-MB-435)?
Answer: Its TGI is 42.7 µM.

Question: What about the TGI (COLO 205 colon) of the same compound?
Answer: Its TGI is 34.8 µM.

Question: And the TGI (ACHN renal)?
Answer: Its TGI is 58.4 µM.

Question: What about the TGI (MDA-MB-231 breast) of the same compound?
Answer: The TGI was 49.7 µM.

Question: What about the TGI (SR leukemia) of the same compound?
Answer: The TGI was 99.5 µM.

Question: And the TGI (NCI/ADR-RES ovarian)?
Answer: Its TGI is 54.7 µM.

Question: And the TGI (A549 NSCLC)?
Answer: Its TGI is 56.9 µM.

Question: What about the TGI (UACC-257 melanoma) of the same compound?
Answer: Its TGI is 48.6 µM.

Question: And the TGI (SF-539 CNS)?
Answer: The TGI was 39.4 µM.

Question: And the TGI (DU-145 prostate)?
Answer: The TGI was 59.4 µM.

Question: And the TGI (SF-268 CNS)?
Answer: Its TGI is 98.4 µM.

Question: What about the TGI (CCRF-CEM leukemia) of the same compound?
Answer: Its TGI is 49.8 µM.

Question: And the TGI (SW-620 colon)?
Answer: Its TGI is 40.7 µM.

Question: What about the TGI (NCI-H522 lung) of the same compound?
Answer: Its TGI is 51.9 µM.

Question: And the TGI (RXF 393 renal)?
Answer: The TGI was 35.8 µM.

Question: And the TGI (HCC-2998 colon)?
Answer: The TGI was 37.9 µM.

Question: What about the TGI (SF-295 CNS) of the same compound?
Answer: Its TGI is 36.8 µM.

Question: What about the TGI (MALME-3M melanoma) of the same compound?
Answer: The TGI was 34.2 µM.

Question: And the TGI (786-0 renal)?
Answer: The TGI was 34.5 µM.

Question: What about the TGI (SK-MEL-28 melanoma) of the same compound?
Answer: Its TGI is 55.8 µM.

Question: And the TGI (MCF7 breast)?
Answer: Its TGI is > 100 µM.

Question: And the TGI (NCI-H460 lung)?
Answer: Its TGI is 62 µM.

Question: And the TGI (HT29 colon)?
Answer: Its TGI is 36.5 µM.

Question: What about the TGI (PC-3 prostate) of the same compound?
Answer: The TGI was 50.1 µM.

Question: And the TGI (IGROV1 ovarian)?
Answer: Its TGI is 38 µM.

Question: And the TGI (NCI-H23 lung)?
Answer: The TGI was 48.1 µM.

Question: And the TGI (T-47D breast)?
Answer: The TGI was 78.1 µM.

Question: What about the TGI (SK-OV-3 ovarian) of the same compound?
Answer: Its TGI is 68 µM.

Question: What about the TGI (EKVX NSCLC) of the same compound?
Answer: The TGI was 48.5 µM.

Question: And the TGI (HOP-92 NSCLC)?
Answer: The TGI was 60.7 µM.

Question: What about the TGI (HS 578T breast) of the same compound?
Answer: The TGI was > 100 µM.

Question: What about the TGI (CAKI-1 renal) of the same compound?
Answer: The TGI was 33.1 µM.

Question: What about the TGI (M14 melanoma) of the same compound?
Answer: The TGI was 44.1 µM.

Question: What about the TGI (OVCAR-5 ovarian) of the same compound?
Answer: Its TGI is 40.9 µM.

Question: And the TGI (HCT-15 colon)?
Answer: Its TGI is 44.7 µM.

Question: And the TGI (A498 renal)?
Answer: Its TGI is 35.4 µM.

Question: What about the TGI (SNB-19 CNS) of the same compound?
Answer: The TGI was 30.7 µM.

Question: And the TGI (HL-60(TB) leukemia)?
Answer: Its TGI is 49.2 µM.

Question: What about the TGI (SK-MEL-5 melanoma) of the same compound?
Answer: Its TGI is 36.2 µM.

Question: What about the TGI (KM12 colon) of the same compound?
Answer: Its TGI is 39.5 µM.

Question: And the TGI (OVCAR-4 ovarian)?
Answer: The TGI was 49.1 µM.

Question: And the TGI (HCT-116 colon)?
Answer: The TGI was 29.3 µM.
